Reference: US20080161389A1, “METHOD OF TREATING OCULAR HYPERTENSION AND INTESTINAL DISORDERS BY USING DIANHYDROHEXITE MONONITRATE DERIVATIVES” (LACER, S.A., priority 2006, published 2008)

What was measured:
[1] = test system: Alfa-Chymotrypsin-Induced Glaucoma; assay: Intraocular pressure in alfa-chymotrypsin-induced glaucoma; type: in vivo, rabbits; conditions: for intraocular pressure 0 hr: 0 h after 3 drops instillation; for intraocular pressure 0 hr / intraocular pressure 1 hr / intraocular pressure 2 hr: rabbits with alpha-chymotrypsin-induced glaucoma; for reduction of intraocular pressure (in words): 0.05%, similar to conventional compound at 10-fold lower concentration; for intraocular pressure 1 hr: 1 h after 3 drops instillation; for intraocular pressure 2 hr: 2 h after 3 drops instillation
Experimental: The method used was that described by Gabriele Campana, Claudio Bucolo, Giovanna Murari and Santi Spampinato in Pharmacol. Exp Therap Vol. 303, Issue 3, 1086-1094, December 2002
Animals were injected with intra muscular injection of dexamethasone at the dose rate of 10 mg/Kg body weight, to avoid immediate inflammation. Animals were anesthetized with ketamine (50 mg/kg IV) in combination with Dizepam.
Xylocaine (4%) was used for local anesthesia topically. A cannula attached to reservoir was inserted into the anterior chamber with the help of a 30 gauge needle to provide a hydrostatic pressure of 25 mmHg during injection of alpha-chymotrypsin. Then a second appropriately shaped 30 gauge needle was introduced near the pupil. Freshly prepared 150 units of alpha chymotrypsin prepared in 0.1 ml of sterile saline was irrigated through the cannula into the posterior chamber. Care was taken to prevent the contact of alpha chymotrypsin with corneal stroma. Both cannulas were carefully removed without significant loss of aqueous humor. Immediately after surgery the eye treated with Sofracort (Corticosteroid) to reduce the chances of fungal or microbial infection.
All the animals were kept under observation for 5 days and after these five days the intraocular pressure (IOP) was measured daily with a Schiontz type indentation tonometer using 5.5 gm weights and by compilation of readings the maximum period required to achieve a stable increase in IOP was determined. […] IOP was measured after 15 days for 3 consecutive days, every morning (at same time) to assure stable IOP.
All the animals were closely observed for the development of glaucoma. Thirty animals showing the symptoms of glaucoma and with the intra ocular pressure more than 30 mmHg were selected for the present investigation.
Compounds 2-acetylthioisosorbide-5-mononitrate and 2-[(R)-methylsulfinyl]isosorbide-5-mononitrate (0.05%) were administered to two different groups of rabbits at a concentration of 0.05% by weight [0.05g in 100 mL of saline serum] by 3 drops instillation. For comparative data, the compound Timolol (Timoftol®) widely used for the treatment of glaucoma, was also administered to another group of rabbits at a concentration of 0.5% by weight.
The intraocular pressure measurements are included in the table 2 in mm Hg taken at 0, 1 and 2 h after 3 drops instillation.

E. coli = assay: Bacterial translocation (E. coli) in indomethacin-induced intestinal inflammation; type: in vivo; conditions: mice; for Bacterial translocation E. coli: number of positive cultures / total number of samples in group, mesenteric lymph nodes, 30 mg/kg orally
Experimental: (§1) Intestinal inflammation were induced by administration of two subcutaneous injections of 7.5 mg/kg indomethacin, as previously described Porras M., Martin M T., Soler M. and Vergara P., “Intestinal motor disorders associated with cyclical bacterial overgrowth in a rat model of enteritis”. Am. J. Physiol. Gastrointest. Liver Physiol. […] Am. J. Physiol. Gastrointest. Liver Physiol. (2006), 290:G423-G430.
(§2) Once the intestinal inflammation has been induced, one group of mice were treated with 30 mg of the compound 2-acetylthioisosorbide-5-mononitrate per kg of body weight, being dissolved this compound in water and administered orally. For comparative data, the compound isosorbide-5-mononitrate (IS-5-MN), structurally similar to 2-acetylthioisosorbide-5-mononitrate, was also administered to another group of mice.
(§3) Myeloperoxidase (MPO) activity was measured as an inflammation index in homogenized tissue samples after centrifugation using a specific ELISA kit (HyCult biotechnology, Uden, The Netherlands). In addition, since the barrier function of the intestinal mucus is deteriorated when the epithelium is inflamed and, as a consequence, the exposed bacteria cross the membrane and enter in the blood current, bacterial translocation was measured by detection of viable enteric bacteria in mesenteric lymph nodes as described by [M Mainous M R., Tso P., Berg R. D. and Deitch E. A., Arch Surg (1991) 126:33-37] as additional measure of inflammation degree.
(§4) Studies of the route, magnitude, and time course of bacterial translocation in a model of systemic inflammation were achieved as describe in Arch Surg 126:33-37, 1991. Bacterial translocation was expressed as the number of positive cultures with respect to the total number of samples in each group and motor activity was measured as the contracting activity expressed as the total number of spontaneous contractions recorded at duodenum per minute.

Myeloperoxidase (MPO) = Myeloperoxidase (MPO) activity as inflammation index in homogenized tissue samples (ELISA), indomethacin-induced intestinal inflammation; type: in vivo, mice; conditions: for MPO activity: homogenized tissue samples, mice, indomethacin-induced intestinal inflammation, 30 mg/kg orally
Experimental: as §1, §2, §3

Enterococcus sp = assay: Bacterial translocation (Enterococcus sp) in indomethacin-induced intestinal inflammation; type: in vivo; conditions: number of positive cultures / total number of samples in group, mesenteric lymph nodes, mice, 30 mg/kg orally
Experimental: as §1
Once the intestinal inflammation has been induced, one group of mice were treated with 30 mg of the compound 2-acetylthioisosorbide-5-mononitrate per kg of body weight, being dissolved this compound in water and administered orally. […]
as §3, with “degree. […]” for “degree.”

duodenum = assay: Motor activity: spontaneous contractions recorded at duodenum, indomethacin-induced intestinal inflammation; type: in vivo; conditions: spontaneous contractions recorded at duodenum per minute, mice, 30 mg/kg orally
Experimental: as §1, §2, §4

Structure (SMILES)	intraocular pressure 0 hr [1] [mm Hg]	reduction of intraocular pressure (in words) [1]	intraocular pressure 1 hr [1] [mm Hg]	intraocular pressure 2 hr [1] [mm Hg]	bacterial translocation (in words) (E. coli)	Bacterial translocation E. coli (E. coli)	reduction of MTO activity (in words) (Myeloperoxidase (MPO); compared to a structurally similar compound (IS-5-MN))	MPO activity (Myeloperoxidase (MPO)) [ng/mL]	Bacterial translocation Enterococcus sp (Enterococcus sp)	Contractions/min (duodenum) [Contractions/min]
C[S@@+]([O-])C1COC2C(O[N+](=O)[O-])COC21 (stereo partly drawn) [2-[(R)-methylsulfinyl]isosorbide-5-mononitrate]	33.87 ± 0.38	significantly reduce the intraocular pressure	23.51 ± 0.24	22.77 ± 0.19	–	–	–	–	–	–
CC(=O)S[C@H]1CO[C@H]2[C@@H]1OC[C@H]2O[N+](=O)[O-] [2-acetylthioisosorbide-5-mononitrate, 2-acetylthio-isosorbide-5-mononitrate]	34.33 ± 0.68	significantly reduce the intraocular pressure	24.72 ± 0.47	23.86 ± 0.32	also reduced	2/6	significant reduction	10 ± 2	1/6	0.2 ± 0.1
O=[N+]([O-])O[C@@H]1CO[C@H]2[C@@H]1OC[C@@H]2O [IS-5-MN, isosorbide-5-mononitrate, reference compound]	–	–	–	–	–	3/6	–	19 ± 4	3/6	0.5 ± 0.1
CC(C)(C)NC[C@H](O)COc1nsnc1N1CCOCC1 [Timolol, reference compound]	34.45 ± 0.58	–	24.77 ± 0.26	24.54 ± 0.26	–	–	–	–	–	–
